What was measured:
[1] = test system: Primary fibroblasts from donors with Friedreich Ataxia (FRDA); assay: BSO assay (cell viability under BSO-induced oxidative stress); type: cell-based, human; conditions: 24 h preincubation, 1 mM BSO; for EC50: Homo sapiens, Fibroblast
In short: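 FRDA patient primary fibroblasts were pretreated with compounds for 24 h, then exposed to 1 mM BSO (final) until toxicity appeared in BSO-only controls (typically 16–48 h). Viability was read by calcein AM (1.2 μM)/ethidium homodimer (4 μM) staining, 60 min RT, fluorescence 485/525 nm.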

[2] = target: T1, 20S Proteasome (Oryctolagus cuniculus, UniProt G1T4Q9); assay: 20S Proteasome assay; type: biochemical, Rabbit; conditions: substrate Suc-Leu-Leu-Val-Tyr-AMC; read-out: 20S Prot IC50
T1 sequence (G1T4Q9 1-263): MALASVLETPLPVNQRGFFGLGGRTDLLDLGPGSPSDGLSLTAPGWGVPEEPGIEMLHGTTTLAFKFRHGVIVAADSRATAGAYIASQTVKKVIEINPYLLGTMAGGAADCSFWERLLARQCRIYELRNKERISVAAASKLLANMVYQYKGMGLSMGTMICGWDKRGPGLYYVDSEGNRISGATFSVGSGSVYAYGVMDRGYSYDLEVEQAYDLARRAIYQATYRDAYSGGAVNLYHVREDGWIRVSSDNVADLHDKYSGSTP
Experimental: 25 μl of a reaction buffer containing 400 μM of the fluorogenic substrate Suc-Leu-Leu-Val-Tyr-AMC (Bachem) are dispensed per well of a white microtiter plate. Test compounds dissolved in 0.5 μl DMSO are added. To start the reaction; 25 μl of reaction buffer containing 35 ng of enzyme (20S Proteasome, Rabbit, Calbiochem) are added. The increase in fluorescence (excitation at 360 nm; emission at 440 nm) is measured over 30 min at 30° C. at 30″. The IC50's are then determined from the slopes.

[3] = test system: cellular calpains in C2C12 myoblasts; assay: Calpain inhibition assay in C2C12 myoblasts; type: cell-based; conditions: 2 h incubation, calcium ionophore Br-A-23187, read-out: Calp I IC50 Myoblast
In short: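 Confluent C2C12 myoblasts in fusion medium (DMEM, 5% horse serum) exposed to compound for 2 h at 37 °C, then loaded with 400 μM Suc-Leu-Tyr-AMC for 20 min at room temperature in buffer with 4 mM CaCl2, HEPES pH 7.25. Calpains activated by Br-A-23187 ionophore (20 μM in added buffer); AMC fluorescence read each minute for 60 min at 37 °C to derive IC50.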

[4] = target: T2, human μ-calpain (Homo sapiens, UniProt P07384); assay: Enzymatic calpain inhibition assay; type: biochemical; conditions: substrate Suc-Leu-Tyr-AMC, read-out: Calp I IC50
T2 construct: purchased Calbiochem
T2 sequence (P07384 1-714): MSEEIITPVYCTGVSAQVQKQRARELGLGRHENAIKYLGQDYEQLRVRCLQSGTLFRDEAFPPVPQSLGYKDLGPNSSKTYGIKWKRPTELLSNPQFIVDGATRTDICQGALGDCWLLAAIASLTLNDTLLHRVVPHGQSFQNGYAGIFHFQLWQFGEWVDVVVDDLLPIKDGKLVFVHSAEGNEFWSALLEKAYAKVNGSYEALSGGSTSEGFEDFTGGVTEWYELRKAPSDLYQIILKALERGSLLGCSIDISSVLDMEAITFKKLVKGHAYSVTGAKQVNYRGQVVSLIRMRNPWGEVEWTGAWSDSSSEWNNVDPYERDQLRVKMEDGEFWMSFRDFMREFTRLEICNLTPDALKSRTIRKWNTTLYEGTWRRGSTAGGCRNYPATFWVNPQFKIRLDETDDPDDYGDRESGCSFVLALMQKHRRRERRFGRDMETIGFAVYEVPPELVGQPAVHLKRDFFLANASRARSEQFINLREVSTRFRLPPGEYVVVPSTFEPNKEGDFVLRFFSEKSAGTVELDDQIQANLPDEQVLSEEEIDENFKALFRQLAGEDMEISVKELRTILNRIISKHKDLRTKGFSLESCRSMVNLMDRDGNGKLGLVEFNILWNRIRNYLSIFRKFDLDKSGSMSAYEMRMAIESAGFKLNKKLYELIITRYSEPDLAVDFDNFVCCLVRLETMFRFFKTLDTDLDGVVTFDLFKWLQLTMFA
T2 sequence (P04632 1-268 partner): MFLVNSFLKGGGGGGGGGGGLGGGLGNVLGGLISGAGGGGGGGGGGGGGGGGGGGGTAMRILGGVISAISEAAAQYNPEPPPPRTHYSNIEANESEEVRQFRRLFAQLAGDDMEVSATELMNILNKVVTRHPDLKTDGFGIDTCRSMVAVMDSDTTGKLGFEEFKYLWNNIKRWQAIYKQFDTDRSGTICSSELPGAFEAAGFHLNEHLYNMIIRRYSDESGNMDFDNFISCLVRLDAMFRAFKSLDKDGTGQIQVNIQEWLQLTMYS
In short: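 Human μ-calpain (0.5 μg) with 250 μM Suc-Leu-Tyr-AMC in 100 mM imidazole pH 7.5, 5 mM cysteine, 5 mM CaCl2. AMC fluorescence (ex 360/em 440 nm) followed 30 min at 30 °C; IC50 determined graphically from initial velocities versus inhibitor concentration.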

[5] = test system: mdx mouse; assay: Longterm treatment of mdx mice (model for Duchenne Muscular Dystrophy); type: in vivo; conditions: 3 week old mice, treatment period of 4 weeks
Experimental: The mdx mouse is a well established animal model for Duchenne Muscular Dystrophy (Bulfield G., Siller W. G., Wight P. A., Moore K. J., X chromosome-linked muscular dystrophy (mdx) in the mouse, Proc. Natl. Acad. Sci. USA., 1984, 81(4), 1189-1192). Selected compounds were tested in longterm treatments of mdx mice, according to the procedures described below.
Mouse strains: C57BL/10scsn and C57BL/10scsn mdx mouse strains were purchased at The Jackson Laboratory (ME, USA) and bred inhouse. Mouse males were sacrificed at the age of 3 or 7 weeks by CO2 asphyxiation.
Treatment: Compounds were dissolved in 50% PEG, 50% saline solution and applied by i.p. injection.
Histology: Tibialis anterior (TA) and diaphragm (Dia) muscles were collected and mounted on cork supports using gum tragacanth (Sigma-Aldrich, Germany). The samples were snap-frozen in melting isopentane and stored at −80° C. 12 μm thick cryosections of the mid-belly region of muscles were prepared. For staining, sections were air dried and fixed with 4% PFA in PBS for 5 minutes, washed 3 times with PBS and incubated over night at 4° C. in PBS containing 2 μg/ml Alexa Fluor™ 488 conjugated wheat-germ agglutinin (WGA-Alexa, Molecular Probes, Eugen, Oreg., USA) to stain membrane-bound and extracellular epitopes and 1 μg/ml 4′,6-diamidino-2-phenylindole (DAPI; Molecular Probes) to stain nuclei.
Image acquisition and analysis: Fluorescence microscopy images of both labels were acquired using a digital camera (ColorView II, Soft Imaging System, Munster, Germany) coupled to a fluorescence microscope (Vanox S, Olympus, Tokyo, Japan). Combination of these two stainings to a composite image, assembling of several images to a complete image of the entire muscle cross-section and further semi-automated analysis was performed using the image analysis program AnalySIS (Soft Imaging System). Image analysis of 1200-2900 muscle fibers in each section was performed in three steps: 1) determination of the muscle fiber boundaries, 2) determination of the muscle fiber size, and 3) determination of the percentage of muscle fibers containing centralized nuclei. Six different geometrical parameters were tested for the determination of the muscle fiber size: (a) the “minimal feret” (the minimum distance of parallel tangents at opposing borders of the muscle fiber), (b) the “area”, (c) the “minimal inner diameter” (the minimum diameter through the center of the muscle fiber), (d) the “minimal diameter” (the minimum diameter of a muscle fiber for angles in the range 0° through 179° with step width 1°, (e) the “minimal outer diameter” (the minimum diameter through the muscle fiber from outer border to outer border), and (f) the “perimeter”. The variance coefficient of the muscle fiber size is defined as follows: variance coefficient=(standard deviation of the muscle fiber size/mean of the muscle fiber size of the section)*1000. For statistical analysis of different variance coefficient values Mann-Whitney U test was used.
Selected Examples of the present invention were active in the mdx mouse model at 10 mg/kg/day, using 3 week old mice and a treatment period of 4 weeks (N=5−10).

[6] = test system: experimental muscular dystrophy in hamster; conditions: cited from earlier work

Row | IC50 [2] [µM] | IC50 [3] [µM] | IC50 [4] [µM] | Compound | EC50 [1] [µM] | BSO EC50 [1] | activity in the mdx mouse model [5] | life-prolonging effect [6]
1 | 0.5 | 0.35 | 0.06 | CCNC(=O)C(=O)[C@H](Cc1ccc(Cl)cc1)NC(=O)[C@@H](NC(=O)CCCCC1CCSS1)C(C)C (some centres unmarked) [Example 1] | 0.35 | – | – | –
2 | 0.4 | 1 | 0.015 | CCNC(=O)C(=O)[C@H](Cc1ccc(OC)cc1)NC(=O)[C@H](CC(C)C)NC(=O)CCCCC1CCSS1 (some centres unmarked) [Example 94] | 1.5 | – | – | –
3 | 0.45 | 0.4 | 0.04 | CCNC(=O)C(=O)[C@H](Cc1ccc(F)c(F)c1)NC(=O)[C@H](CC(C)C)NC(=O)CCCCC1CCSS1 (some centres unmarked) [Example 47] | – | – | – | –
4 | 0.42 | 0.25 | 0.046 | CCNC(=O)C(=O)[C@H](Cc1ccc(OC)cc1)NC(=O)[C@@H](NC(=O)c1cccc(NC(=O)CCCCC2CCSS2)c1)C(C)C (some centres unmarked) [Example 197] | – | – | – | –
5 | 0.8 | 3 | 0.035 | CCNC(=O)C(=O)[C@H](Cc1ccc(F)cc1)NC(=O)[C@H](CC(C)C)NC(=O)CCCCC1CCSS1 (some centres unmarked) [Example 39] | – | inactive | – | –
6 | > 1 | 1.1 | 0.075 | CCNC(=O)C(=O)[C@H](Cc1ccc(C(F)(F)F)cc1)NC(=O)[C@H](CC(C)C)NC(=O)CCCCC1CCSS1 (some centres unmarked) [Example 124] | 5 | – | – | –
7 | 0.18 | 0.35 | 0.07 | CCNC(=O)C(=O)[C@H](Cc1ccc(C)cc1)NC(=O)[C@@H](NC(=O)CCCCC1CCSS1)C(C)C (some centres unmarked) [Example 104] | 0.3 | – | – | –
8 | 0.08 | 0.45 | 0.15 | Cc1ccc(S(=O)(=O)CNC(=O)C(=O)[C@H](Cc2ccccc2)NC(=O)[C@@H](NC(=O)CCCCC2CCSS2)C(C)C)cc1 (some centres unmarked) [Example 140] | 0.5 | – | – | –
9 | > 10 | 1.2 | 0.4 | CCNC(=O)C(=O)[C@H](Cc1ccc(OC)cc1)NC(=O)[C@@H](NC(=O)CCCCC1CCC[S+]1[O-])C(C)C (some centres unmarked) [Example 87] | 9 | – | – | –
10 | – | – | – | CCOC(=O)[C@H]1O[C@@H]1C(=O)N[C@@H](CC(C)C)C(=O)NCCC(C)C [Example E-64-d] | – | – | – | life-prolonging effect
11 | > 1 | 0.31 | 0.075 | CC(C)[C@H](NC(=O)CCCCC1CCSS1)C(=O)N[C@@H](Cc1ccc(Br)cc1)C(=O)C(=O)NC1CCCCC1 (some centres unmarked) [Example 57] | – | inactive | – | –
12 | > 1 | 2 | 0.02 | CCNC(=O)C(=O)[C@H](Cc1ccc(Br)cc1)NC(=O)[C@H](CC(C)C)NC(=O)CCCCC1SC[C@@H]2NC(=O)N[C@H]12 (some centres unmarked) [Example 164] | – | inactive | – | –
13 | 0.11 | 0.4 | 0.1 | CCNC(=O)C(=O)[C@H](Cc1ccc(Cl)cc1)NC(=O)[C@@H](NC(=O)CCCCC1CCCS1)C(C)C (some centres unmarked) [Example 3] | 4 | – | – | –
14 | > 100 | 1.8 | 0.035 | CCNC(=O)C(=O)[C@H](CC1CCCCC1)NC(=O)[C@H](CC(C)C)NC(=O)CCCCC1CCSS1 (some centres unmarked) [Example 151] | – | – | – | –
15 | 0.4 | 1.5 | 0.015 | CCNC(=O)C(=O)[C@H](Cc1ccc(Br)cc1)NC(=O)[C@H](CC(C)C)NC(=O)CCCCC1CCS[S+]1[O-] (some centres unmarked) [Example 65] | 1 | – | – | –
16 | 0.28 | 0.5 | 0.03 | CCNC(=O)C(=O)[C@H](Cc1ccc(C)cc1)NC(=O)[C@H](CC(C)C)NC(=O)CCCCC1CCSS1 (some centres unmarked) [Example 110] | 0.5 | – | – | –
17 | 0.18 | 0.2 | 0.06 | CCNC(=O)C(=O)[C@H](Cc1ccc(Br)cc1)NC(=O)[C@@H](NC(=O)CCCCC1CCSS1)C(C)C (some centres unmarked) [Example 53] | 0.4 | – | – | –

Row | Compound | IC50 [2] [µM] | IC50 [3] [µM] | IC50 [4] [µM] | EC50 [1] [µM] | BSO EC50 [1] | activity in the mdx mouse model [5] | life-prolonging effect [6]
18 | Z-Val-Phe-H [MDL-28170, reference compound] | > 1 | 40 | – | – | – | did not show statistically significant activity | –

— patent publication US20060258598A1, “Alpha-keto carbonyl calpain inhibitors” (priority 2003, published 2006)
